PMC7061854, “Population Pharmacokinetics of Caspofungin and Dosing Optimization in Children With Allogeneic Hematopoietic Stem Cell Transplantation” (Frontiers in Pharmacology, 2020)
Converted amounts (≈) assume the structure as drawn. Read-outs that look alike come from different tables or passages of the source.

Tests used:
C. glabrata [1] = settings: ref Pfaller et al.; cited from earlier work
Description: Table 4 The area under the concentration-time curve (AUC)/minimal inhibitory concentration (MIC) target probability of target attainment (PTA) values(%) against Candida albicans, Candida glabrata, and Candida parapsilosis for caspofungin in pediatric patients. | column: AUC/MIC target PTA(%) / C. glabrata MIC90 = 0.06 mg/L / Fungistatic target || Two simulation procedures were performed to calculate the probability of PK/PD target attainment with different dosing regimens based on the final model. One of the procedure is fixed MIC value of Candida app. to simulated the clinical efficacy of the different drug regimens of caspofungin in infants, children (age 2–11 years), and adolescents (age 12–14 years). According to the literature report, the MIC90 value for C. albicans, C. glabrata, and C. parapsilosis are 0.03, 0.06, and 0.5 mg/L ([Pfaller et al.]). Another simulation procedure is not fixed MIC values. The loading doses of caspofung ...

clinical = assay type: in vivo, human; settings: for AUC(0-t) / clearance: human, in vivo, iv; for AUC(0-t): median ± standard deviation, read-out: AUC24
Description: A prospective, open-label pharmacokinetic study of caspofungin was performed at Wuhan Children's Hospital, Hubei Province. All designed procedures conformed to the legal requirements and the ethics committee of Wuhan Children's Hospital approved this study.
(§1) Caspofungin has been approved for use in patients with IFI that requiring prevention treatment, especially for patients undergoing allo-HSCT. In total, 48 patients, received allo-HSCT, fulfilled the enrollment criteria and provided informed in the model building group between July 2017 and March 2019. They received caspofungin as a 1-h intravenous infusion on the basis of body surface area (BSA) with 50 mg/m^2 maintenance dose daily followed by 70 mg/m^2 loading dose on day 1.
We performed an opportunistic sampling strategy when a steady-state caspofungin concentration had been achieved. Plasma was placed on ice and centrifuged (15,000 rpm for 5 min at +4°C) immediately and then stored at −80°C prior to analysis. Then we recorded the dosing and infusion time as well as sampling time prospectively.
Caspofungin concentrations were detected by a high-performance liquid chromatography method (Agilent Technologies Inc., 1260 infinity) with ultraviolet (UV) performed on detection by fluorescence. The excitation wavelength was 220 nm, the column temperature was 30 °C, and the pump flow rate was 0.8 ml/min. A solution of 42% acetonitrile was used as the mobile phase. We employed 0.5 ml of serum loaded on solid-phase extraction column (Agela Technologies, Cleanert ODS C18, 200 mg/3 ml) and then eluted with 60% acetonitrile. An Innoval C18 column (Agela Technologies, 10 μm, 4.6 × 250 mm) was used for separation. The calibration curve ranged from 0.6 to 20 mg/L. The inter- and intra-assay coefficients of variation of controls were all less than 5%. The lower limit of quantification (LLOQ) was 0.6 mg/L.
The PopPK study was performed by applying the non-linear mixed-effect modeling program Phoenix NLME (Version 8.1, Pharsight Corporation) and R program (Version 3.5.1, http://www.r-project.org/).
We tried to describe the pharmacokinetic process of caspofungin in vivo by using the one- or two-compartment models. The scale model and exponential model were adopted for intra-individual variation and inter-individual variation respectively. A forward and backward selection process was used for covariate analysis. The effects of demographic characteristics including age, body weight (WT), height, BSA, biological parameters including uric acid (UA), serum cystatin C (Cys-C), estimated glomerular filtration rate (eGFR), alanine aminotransferase (ALT), aspartate aminotransferase (AST), and gama-glutamyltranspeptidase (gama-GT) that were investigated as potential covariates on PK parameters. eGFR was calculated according to the modified Schwarta formula ([Schwartz et al., 2009]). Mosteller formula was used to calculate the body surface area (BSA) as follows ([Yang et al., 2019]):
BSA(m^2)=[height(cm)×weight(kg)/3600]^1/2
During the forward selection step, the covariate causing the objective function value (OFV) decreased more than 3.84 (P < 0.05, χ2 distribution, df = 1), the covariate was included into the model, thereafter we tested the remaining covariates.
In this study, goodness-of-fit plots, bootstrap, visual predictive check (VPC), and normalized prediction distribution errors (NPDEs) were adopted to model validation. Bootstrap resampling 1,000 times in the modeling data, and the model was established with the sampling data set. We compared the similarity between bootstrap model parameters and the parameters in final model. VPC simulated 1,000 virtual data with the final model and analyze whether the 95% confidence interval (CI) of the simulated data contains the original data. NPDEs also adopted simulation technology and simulated 1,000 times based on the final model to investigated the distribution of the standard error and perform the normal distribution test.

C. parapsilosis [2] = settings: ref Pfaller et al.; cited from earlier work
Description: Table 4 The area under the concentration-time curve (AUC)/minimal inhibitory concentration (MIC) target probability of target attainment (PTA) values(%) against Candida albicans, Candida glabrata, and Candida parapsilosis for caspofungin in pediatric patients. | column: AUC/MIC target PTA(%) / C. parapsilosis MIC90 = 0.5 mg/L / Fungistatic target || Two simulation procedures were performed to calculate the probability of PK/PD target attainment with different dosing regimens based on the final model. One of the procedure is fixed MIC value of Candida app. to simulated the clinical efficacy of the different drug regimens of caspofungin in infants, children (age 2–11 years), and adolescents (age 12–14 years). According to the literature report, the MIC90 value for C. albicans, C. glabrata, and C. parapsilosis are 0.03, 0.06, and 0.5 mg/L ([Pfaller et al.]). Another simulation procedure is not fixed MIC values. The loading doses of caspofung ...

C. albicans [3] = settings: ref Pfaller et al.; cited from earlier work
Description: Table 4 The area under the concentration-time curve (AUC)/minimal inhibitory concentration (MIC) target probability of target attainment (PTA) values(%) against Candida albicans, Candida glabrata, and Candida parapsilosis for caspofungin in pediatric patients. | column: AUC/MIC target PTA(%) / C. albicans MIC90 = 0.04 mg/L / Fungistatic target || Two simulation procedures were performed to calculate the probability of PK/PD target attainment with different dosing regimens based on the final model. One of the procedure is fixed MIC value of Candida app. to simulated the clinical efficacy of the different drug regimens of caspofungin in infants, children (age 2–11 years), and adolescents (age 12–14 years). According to the literature report, the MIC90 value for C. albicans, C. glabrata, and C. parapsilosis are 0.03, 0.06, and 0.5 mg/L ([Pfaller et al.]). Another simulation procedure is not fixed MIC values. The loading doses of caspofung ...

C. parapsilosis [4] = test: MIC of the isolate cultured from bronchoalveolar lavage fluid; assay type: cell-based, Candida parapsilosis; settings: isolate of one failed prophylaxis case
Description: In this study, 48 patients received caspofungin (loading dose of 70 mg/m^2 followed by 50 mg/m^2) as prophylaxis for fungal infections for a period of HSCT. The diagnosis of IFI mainly relied on a chest computed tomography (CT), clinical symptoms, blood culture, G test, and GM test. Patients were considered a probable IFI case with a chest CT scan positive for a halo or air crescent sign and large mass flocculent shadow. Routine blood culture, as long as the patients who receive bronchoscopy are all sent to receive bronchoalveolar lavage fluid culture meanwhile high throughput sequencing to find the pathogenic bacteria. […] The culture of bronchoalveolar lavage fluid was negative in three cases for consecutive two times and positive for C. parapsilosis in one case that was identified as C. parapsilosis infection (MIC = 0.5 mg/L). The median ± standard deviation of AUC24 in successful and failed cases group are 394.93 ± 91.14 mg·h/L and 352.08 ± 24.43 mg·h/L (t = 0.929, P = 0.358) at the loading dose, 300.37 ± 88.3 mg·h/L and 247.71 ± 33.67 mg·h/L (t = 1.175, P = 0.246) at the maintenance dose respectively. […] They were much lower than fungicidal target AUC24/MIC ratios ⩾ 1185 for C. parapsilosis. At the maintenance dose AUC24/MIC ratios were lower than the fungistatic target AUC24/MIC ratios ⩾ 559 for C. parapsilosis, which might lead to the failure of preventive treatment.

[5] = tested on: invasive fungal infections (IFI); test: Clinical outcome of caspofungin prophylaxis for fungal infections during HSCT; assay type: in vivo, human
Description: as §1
In this study, 48 patients received caspofungin (loading dose of 70 mg/m^2 followed by 50 mg/m^2) as prophylaxis for fungal infections for a period of HSCT. The diagnosis of IFI mainly relied on a chest computed tomography (CT), clinical symptoms, blood culture, G test, and GM test. Patients were considered a probable IFI case with a chest CT scan positive for a halo or air crescent sign and large mass flocculent shadow. Routine blood culture, as long as the patients who receive bronchoscopy are all sent to receive bronchoalveolar lavage fluid culture meanwhile high throughput sequencing to find the pathogenic bacteria. […] The culture of bronchoalveolar lavage fluid was negative in three cases for consecutive two times and positive for C. parapsilosis in one case that was identified as C. parapsilosis infection (MIC = 0.5 mg/L). […]

C. glabrata [6] = settings: ref Andes et al., 2010; cited from earlier work
From the text: (§2) The likely success of treatment identified with the probability of target attainment (PTA) by comparing the pharmacodynamic exposure against an minimal inhibitory concentration (MIC) distribution. […] A PK/PD target was defined as the ratio AUC24/MIC for candidiasis. […] Fungistatic ...

C. albicans [7] = settings: ref Andes et al., 2010; cited from earlier work
From the text: as §2

[8] = median, children 2–12 years old, two-compartment model; ref Yang et al., 2019; cited from earlier work
From the text: Others reported weight and disease state had significant effects on caspofungin PKs in pediatric patients ([Li et al., 2011]). Xin-Mei Yang studied the PK of caspofungin in children (2–12 years old).

[9] = Bayesian estimates, mean ± SD, all children, SD
[10] = patients with mild liver dysfunction (40 U/L < AST ⩽ 120 U/L)
[11] = patients with normal liver function

## CC[C@H](C)C[C@H](C)CCCCCCCCC(=O)N[C@H]1C[C@@H](O)[C@@H](NCCN)NC(=O)[C@@H]2[C@@H](O)CCN2C(=O)[C@H]([C@H](O)CCN)NC(=O)[C@H]([C@H](O)[C@@H](O)c2ccc(O)cc2)NC(=O)[C@@H]2C[C@@H](O)CN2C(=O)[C@H]([C@@H](C)O)NC1=O [caspofungin, Caspofungin]
C. glabrata [1]
  MIC90: 0.06 µg/mL (≈ 0.0549 µM)
clinical; 1,000-run bootstrap
  θ1 Bootstrap analysis Median Estimate: 0.91
  θ2 Bootstrap analysis Median Estimate: −0.25
clinical; [9]
  BSA-normalized CL: 0.19 ± 0.04 L/m^2/h
  BSA-normalized Vd: 1.72 ± 0.01 L/m^2
clinical; adolescents, age 12–14 years, two severe liver dysfunction patients excluded
  BSA-normalized CL: 0.178 ± 0.039 L/m^2/h
clinical; children, age 2–11 years, two severe liver dysfunction patients excluded
  BSA-normalized CL: 0.187 ± 0.031 L/m^2/h
clinical; final PopPK model
  θ1 (exponent for BSA as covariate) Final model Estimate: 0.89
  θ2 (exponent for lnAST as covariate for CL) Final model Estimate: −0.23
clinical; 50 mg/m2, failed cases group, at the maintenance dose (50 mg/m^2), SD
  AUC(0-t): 248 ± 33.7 µg·h/mL
clinical; 50 mg/m2, successful cases group, at the maintenance dose (50 mg/m^2), SD
  AUC(0-t): 300 ± 88.3 µg·h/mL
clinical; 70 mg/m2, failed cases group, at the loading dose (70 mg/m^2), SD
  AUC(0-t): 352 ± 24.4 µg·h/mL
clinical; 70 mg/m2, successful cases group, at the loading dose (70 mg/m^2), SD
  AUC(0-t): 395 ± 91.1 µg·h/mL
clinical; [10]
  clearance: 1.95 mL/min
  estimated BSA-normalized CL: 0.179 ± 0.03 L/m^2/h
clinical; [11]
  clearance: 2.67 mL/min
  estimated BSA-normalized CL: 0.188 ± 0.03 L/m^2/h
clinical; infants, two severe liver dysfunction patients excluded
  BSA-normalized CL: 0.190 ± 0.015 L/m^2/h
clinical; one-compartment PopPK model, typical value, 48 children with allo-HSCT, Vd = 1.36 × (BSA/0.79)
  θVd (L) Final model Estimate: 1.36 L
clinical; one-compartment PopPK model, typical value, CL = 0.14 × (BSA/0.79)^0.89 × (lnAST/3.38)^−0.23
  θCL (L·h^−1) Final model Estimate: 0.14 L/h
C. parapsilosis [2]
  MIC90: 0.5 µg/mL (≈ 0.457 µM)
C. albicans [3]
  MIC90: 0.03 µg/mL (≈ 0.0274 µM)
C. parapsilosis [4]
  MIC: 0.5 µg/mL
[5]; 48 caspofungin recipients, standard-dose
  drug-related adverse events: we did not find drug-related adverse events
[5]; 48 children with allo-HSCT, loading dose 70 mg/m^2 followed by 50 mg/m^2
  patients with prophylaxis (favorable) outcome: 92%
C. glabrata [6]
  Fungicidal target AUC24/MIC ratio: 450
  Fungistatic target AUC24/MIC ratio: 96.2
C. albicans [7]
  Fungicidal target AUC24/MIC ratio: 865
  Fungistatic target AUC24/MIC ratio: 748
[8]
  CL: 0.21 L/h/m^2
  central volume distribution: 2.23 L/m^2
